From patent US20250197372A1 (priority 2020, published 2025)

Key:
Type in all cases: biochemical
[1] = target: T1, recombinant alpha-glucosidase I (human full-length glucosidase I, Glu 1) (Homo sapiens, UniProt Q13724); test: Alpha-glucosidase I assay (Amplex Red glucose detection, synthetic trisaccharide substrate); details: Glucosidase 1; read-out: Glu 1 IC50
T1 construct: 6-His (C); made in house; host or cells: HEK-293T cells transduced with BacMam virus (virus raised in Sf9)
T1 sequence (Q13724 1-837): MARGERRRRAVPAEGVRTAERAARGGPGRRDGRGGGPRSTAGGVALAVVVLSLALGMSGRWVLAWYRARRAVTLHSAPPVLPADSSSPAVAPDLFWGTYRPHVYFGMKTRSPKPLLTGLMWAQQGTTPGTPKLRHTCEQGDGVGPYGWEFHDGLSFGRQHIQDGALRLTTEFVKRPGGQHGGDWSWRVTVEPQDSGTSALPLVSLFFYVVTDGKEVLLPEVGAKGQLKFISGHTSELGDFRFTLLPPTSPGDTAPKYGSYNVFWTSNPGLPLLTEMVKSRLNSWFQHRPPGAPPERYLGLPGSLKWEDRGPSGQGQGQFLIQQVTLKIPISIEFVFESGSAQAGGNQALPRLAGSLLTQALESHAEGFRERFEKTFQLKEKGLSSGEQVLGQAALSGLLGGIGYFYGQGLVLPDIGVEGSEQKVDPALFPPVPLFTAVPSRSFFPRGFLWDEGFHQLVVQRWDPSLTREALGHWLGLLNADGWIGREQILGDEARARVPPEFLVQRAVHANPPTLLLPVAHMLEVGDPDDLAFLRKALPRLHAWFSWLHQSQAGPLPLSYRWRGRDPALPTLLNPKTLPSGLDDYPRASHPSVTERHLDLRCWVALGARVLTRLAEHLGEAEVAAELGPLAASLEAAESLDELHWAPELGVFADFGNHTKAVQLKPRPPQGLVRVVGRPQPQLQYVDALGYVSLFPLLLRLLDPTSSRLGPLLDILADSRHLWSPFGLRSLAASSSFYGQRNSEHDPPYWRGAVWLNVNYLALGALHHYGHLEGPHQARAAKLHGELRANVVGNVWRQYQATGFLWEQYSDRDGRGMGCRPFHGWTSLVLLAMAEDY
Method in brief: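 Compound dilution series incubated 60 min at 37° C with recombinant His-tagged human glucosidase I ([…]), after which trisaccharide substrate analog was added for 90 min at 37° C. Reaction quenched with 1.5M Tris pH 8; D-glucose detected by Amplex Red fluorescence, 560/590 nm. 4-PL curve fit of percent inhibition gave IC50.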

[2] = target: T2, recombinant alpha-glucosidase II (murine full-length glucosidase II, alpha and beta subunits, Glu 2) (Mus musculus, UniProt Q8BHN3); test: Alpha-glucosidase II assay (4-methylumbelliferyl-alpha-D-pyranoside substrate, fluorescence); details: Glucosidase 2; read-out: Glu2 IC50
T2 construct: made in house; host or cells: HEK-293T cells transduced with BacMam viruses (75% alpha, 25% beta); protein harvested from culture supernatant

[3] = target: rat maltase (partially purified alpha-glucosidase from intestinal rat powder); test: Intestinal alpha-glucosidase assay, maltose substrate (Glucose GO Kit)
Method in brief: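 First step: 60 min, 37 °C, compound with partially purified rat intestinal alpha-glucosidase. Next, maltose or sucrose for 30 min at 37 °C, ended at 90 °C for 5 min. Glucose quantified enzymatically; concentration–inhibition data fitted 4-PL for IC50.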

[4] = target: rat sucrase (partially purified alpha-glucosidase from intestinal rat powder) (Rattus norvegicus, UniProt P23739); test: Intestinal alpha-glucosidase assay, sucrose substrate (Glucose GO Kit)
Method in brief: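 Glucose release is the read-out: compounds at multiple dilutions are first held with partially purified rat intestinal alpha-glucosidase for 60 min at 37 °C, after which maltose or sucrose substrate reacts for 30 min at 37 °C before a 5 min 90 °C stop. IC50 comes from a four-parameter logistic fit.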

T2 sequence (O08795 15-521): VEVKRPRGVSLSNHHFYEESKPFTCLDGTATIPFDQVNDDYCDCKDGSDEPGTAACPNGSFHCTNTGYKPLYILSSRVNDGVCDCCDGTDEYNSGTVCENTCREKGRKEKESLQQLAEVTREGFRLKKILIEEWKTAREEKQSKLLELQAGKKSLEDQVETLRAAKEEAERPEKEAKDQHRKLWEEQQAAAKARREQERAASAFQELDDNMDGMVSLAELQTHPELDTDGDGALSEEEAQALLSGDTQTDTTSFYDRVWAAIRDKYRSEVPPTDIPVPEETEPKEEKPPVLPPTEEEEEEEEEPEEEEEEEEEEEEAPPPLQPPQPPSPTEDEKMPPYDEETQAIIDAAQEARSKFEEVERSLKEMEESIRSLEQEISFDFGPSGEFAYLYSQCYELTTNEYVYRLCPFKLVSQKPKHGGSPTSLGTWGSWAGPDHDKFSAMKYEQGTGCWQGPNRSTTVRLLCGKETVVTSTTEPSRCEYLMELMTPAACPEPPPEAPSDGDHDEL
T2 sequence (Q8BHN3 33-944): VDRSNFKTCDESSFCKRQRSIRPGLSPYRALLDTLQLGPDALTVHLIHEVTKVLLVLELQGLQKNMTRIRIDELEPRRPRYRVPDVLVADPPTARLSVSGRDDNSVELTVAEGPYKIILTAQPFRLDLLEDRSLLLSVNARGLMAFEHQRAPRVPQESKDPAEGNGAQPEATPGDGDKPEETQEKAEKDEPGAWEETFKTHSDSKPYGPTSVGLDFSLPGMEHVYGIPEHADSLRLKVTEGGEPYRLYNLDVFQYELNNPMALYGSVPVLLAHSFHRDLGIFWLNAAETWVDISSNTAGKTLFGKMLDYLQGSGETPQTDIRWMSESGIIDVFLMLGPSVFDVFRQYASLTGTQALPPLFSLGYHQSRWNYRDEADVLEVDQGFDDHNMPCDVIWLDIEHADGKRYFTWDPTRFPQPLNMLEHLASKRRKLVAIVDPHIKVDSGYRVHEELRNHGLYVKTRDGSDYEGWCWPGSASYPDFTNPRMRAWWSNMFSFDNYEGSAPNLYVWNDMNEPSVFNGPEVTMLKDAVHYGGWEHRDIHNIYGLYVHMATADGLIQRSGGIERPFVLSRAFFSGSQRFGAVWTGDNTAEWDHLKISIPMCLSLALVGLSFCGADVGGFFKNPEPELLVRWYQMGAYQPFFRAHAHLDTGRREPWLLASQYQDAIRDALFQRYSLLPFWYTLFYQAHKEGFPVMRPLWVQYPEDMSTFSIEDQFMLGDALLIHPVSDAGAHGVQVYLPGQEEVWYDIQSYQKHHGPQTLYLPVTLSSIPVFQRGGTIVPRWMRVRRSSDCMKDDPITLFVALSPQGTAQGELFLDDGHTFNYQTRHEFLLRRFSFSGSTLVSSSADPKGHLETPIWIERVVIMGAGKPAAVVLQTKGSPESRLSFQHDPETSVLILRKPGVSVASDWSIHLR
rat sucrase (partially purified alpha-glucosidase from intestinal rat powder), sequence (P23739 whole entry): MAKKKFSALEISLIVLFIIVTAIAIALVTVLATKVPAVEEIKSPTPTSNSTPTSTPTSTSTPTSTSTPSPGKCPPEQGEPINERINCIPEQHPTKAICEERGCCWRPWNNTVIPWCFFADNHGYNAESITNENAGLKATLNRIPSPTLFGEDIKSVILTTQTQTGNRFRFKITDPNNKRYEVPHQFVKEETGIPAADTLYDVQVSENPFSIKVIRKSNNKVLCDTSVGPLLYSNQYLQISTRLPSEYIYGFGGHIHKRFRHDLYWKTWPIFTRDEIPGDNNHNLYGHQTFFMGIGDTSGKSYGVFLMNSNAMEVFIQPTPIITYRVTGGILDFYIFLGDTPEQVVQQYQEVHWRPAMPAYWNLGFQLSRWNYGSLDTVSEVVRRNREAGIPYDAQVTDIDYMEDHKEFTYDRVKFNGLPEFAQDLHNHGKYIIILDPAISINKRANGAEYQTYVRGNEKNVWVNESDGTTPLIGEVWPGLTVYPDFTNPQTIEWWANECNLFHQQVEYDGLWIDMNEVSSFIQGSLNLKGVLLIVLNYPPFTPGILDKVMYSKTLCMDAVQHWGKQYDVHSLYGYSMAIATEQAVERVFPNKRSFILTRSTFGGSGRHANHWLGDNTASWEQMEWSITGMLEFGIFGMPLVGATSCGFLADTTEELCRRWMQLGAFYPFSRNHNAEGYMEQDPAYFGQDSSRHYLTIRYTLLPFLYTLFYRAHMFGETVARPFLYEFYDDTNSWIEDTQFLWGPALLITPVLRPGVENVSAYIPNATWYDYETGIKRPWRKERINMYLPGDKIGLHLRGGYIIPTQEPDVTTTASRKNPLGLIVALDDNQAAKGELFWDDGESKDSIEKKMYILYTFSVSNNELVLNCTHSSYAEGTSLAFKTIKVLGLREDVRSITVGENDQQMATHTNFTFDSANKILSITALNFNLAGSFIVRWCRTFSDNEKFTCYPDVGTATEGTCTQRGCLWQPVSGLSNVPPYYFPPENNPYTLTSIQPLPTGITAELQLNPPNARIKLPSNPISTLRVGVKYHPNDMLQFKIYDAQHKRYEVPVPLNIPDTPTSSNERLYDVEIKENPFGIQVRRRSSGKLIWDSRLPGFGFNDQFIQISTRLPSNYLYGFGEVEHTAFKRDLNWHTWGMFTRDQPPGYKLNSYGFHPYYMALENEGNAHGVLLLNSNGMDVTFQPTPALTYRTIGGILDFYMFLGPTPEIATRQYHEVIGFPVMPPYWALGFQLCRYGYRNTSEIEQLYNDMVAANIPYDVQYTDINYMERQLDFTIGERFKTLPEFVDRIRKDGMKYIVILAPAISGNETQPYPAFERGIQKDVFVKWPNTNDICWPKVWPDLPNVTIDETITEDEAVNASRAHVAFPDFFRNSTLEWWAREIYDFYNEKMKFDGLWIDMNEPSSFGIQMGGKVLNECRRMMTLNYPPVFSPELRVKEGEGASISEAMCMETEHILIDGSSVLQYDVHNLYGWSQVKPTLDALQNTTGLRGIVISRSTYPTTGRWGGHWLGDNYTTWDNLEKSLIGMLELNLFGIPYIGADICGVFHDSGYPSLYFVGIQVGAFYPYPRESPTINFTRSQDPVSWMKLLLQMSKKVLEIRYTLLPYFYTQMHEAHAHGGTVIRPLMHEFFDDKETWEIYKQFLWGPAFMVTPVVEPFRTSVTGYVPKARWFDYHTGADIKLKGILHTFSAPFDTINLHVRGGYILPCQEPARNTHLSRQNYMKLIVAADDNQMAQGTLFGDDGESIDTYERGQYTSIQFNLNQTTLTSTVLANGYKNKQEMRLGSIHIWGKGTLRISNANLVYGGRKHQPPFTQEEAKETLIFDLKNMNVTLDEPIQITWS

SMILES | IC50 [1] [nM] | IC50 [2] [nM] | IC50 [3] [nM] | IC50 [4] [nM]
N#Cc1cc(NCc2cccc(CN3C[C@H](O)[C@@H](O)[C@H](O)[C@H]3CO)c2)cc(-c2ccc[nH]2)c1 [Compound 1045, 3-(1H-pyrrol-2-yl)-5-{[(3-{[(2R,3R,4R,5S)-3,4,5-trihydroxy-2-(hydroxymethyl)piperidin-1-yl]methyl}phenyl)methyl]amino}benzonitrile] | < 1 | 7700 | < 1 | < 1
OC[C@@H]1[C@@H](O)[C@H](O)[C@@H](O)CN1Cc1cccc(CNc2ccc(N3CCOCC3)cc2)c1 [Compound 1081, (2R,3R,4R,5S)-2-(hydroxymethyl)-1-{[3-({[4-(morpholin-4-yl)phenyl]amino}methyl)phenyl]methyl}piperidine-3,4,5-triol] | 169 | 70400 | 110 | 161
COC(=O)c1cc(Cl)cc(NCCc2ccc(CCN3C[C@H](O)[C@@H](O)[C@H](O)[C@H]3CO)cc2)c1 [Compound 1116, methyl 3-chloro-5-{[2-(4-{2-[(2R,3R,4R,5S)-3,4,5-trihydroxy-2-(hydroxymethyl)piperidin-1-yl]ethyl}phenyl)ethyl]amino}benzoate] | 1360 | < 1 | 162 | 1230
Cc1cc(CN2CCOCC2)cc(NCCCCCCN2C[C@H](O)[C@@H](O)[C@H](O)[C@H]2CO)c1 [Compound 1003, (2R,3R,4R,5S)-2-(hydroxymethyl)-1-[6-({3-methyl-5-[(morpholin-4-yl)methyl]phenyl}amino)hexyl]piperidine-3,4,5-triol] | 366 | 2 | 21 | 382
O=C(O)c1cc(Cl)cc(NCCc2ccc(CCN3C[C@H](O)[C@@H](O)[C@H](O)[C@H]3CO)cc2)c1 [Compound 1117, 3-chloro-5-{[2-(4-{2-[(2R,3R,4R,5S)-3,4,5-trihydroxy-2-(hydroxymethyl)piperidin-1-yl]ethyl}phenyl)ethyl]amino}benzoic acid] | 877 | 139 | 218 | 483
O=C(O)c1cc(NCCCCCCN2C[C@H](O)[C@@H](O)[C@H](O)[C@H]2CO)cc(-c2ncccn2)c1 [Compound 1118, 3-(pyrimidin-2-yl)-5-({6-[(2R,3R,4R,5S)-3,4,5-trihydroxy-2-(hydroxymethyl)piperidin-1-yl]hexyl}amino) benzoic acid] | 10 | 5 | 4 | 58
Cc1cc(CN2CCOCC2)cc(NCc2ccc(CN3C[C@H](O)[C@@H](O)[C@H](O)[C@H]3CO)cc2)c1 [Compound 1005, (2R,3R,4R,5S)-2-(hydroxymethyl)-1-({4-[({3-methyl-5-[(morpholin-4-yl)methyl]phenyl}amino)methyl]phenyl}methyl)piperidine-3,4,5-triol] | 404 | 1580 | 58 | 661
Cc1cc(NCc2ccc(CN3C[C@H](O)[C@@H](O)[C@H](O)[C@H]3CO)cc2)cc(-c2ccc[nH]2)c1 [Compound 1051, (2R,3R,4R,5S)-2-(hydroxymethyl)-1-{[4-({[3-methyl-5-(1H-pyrrol-2-yl)phenyl]amino}methyl)phenyl]methyl}piperidine-3,4,5-triol] | 48 | 213 | < 1 | < 1
Cc1cc(NCc2ccc(CN3C[C@H](O)[C@@H](O)[C@H](O)[C@H]3CO)cc2)cc(N2CCOCC2)c1 [Compound 1048, (2R,3R,4R,5S)-2-(hydroxymethyl)-1-{[4-({[3-methyl-5-(morpholin-4-yl)phenyl]amino}methyl)phenyl]methyl}piperidine-3,4,5-triol] | 145 | 550 | 13 | 59
[N-]=[N+]=Nc1ccc(NCC[C@H]2CC[C@H](CCN3C[C@H](O)[C@@H](O)[C@H](O)[C@H]3CO)CC2)c([N+](=O)[O-])c1 [Compound 1107, (2R,3R,4R,5S)-2-(hydroxymethyl)-1-{2-[(1r,4r)-4-{2-[(4-azido-2-nitrophenyl)amino]ethyl}cyclohexyl]ethyl}piperidine-3,4,5-triol] | 107 | 41 | 249 | 576
[N-]=[N+]=Nc1ccc(NCC[C@H]2CC[C@@H](CCN3C[C@H](O)[C@@H](O)[C@H](O)[C@H]3CO)CC2)c([N+](=O)[O-])c1 [Compound 1106, (2R,3R,4R,5S)-2-(hydroxymethyl)-1-{2-[(1s,4s)-4-{2-[(4-azido-2-nitrophenyl)amino]ethyl}cyclohexyl]ethyl}piperidine-3,4,5-triol] | < 1 | 9 | 31 | 6
N#Cc1cc(NCc2ccc(CN3C[C@H](O)[C@@H](O)[C@H](O)[C@H]3CO)cc2)cc(-c2ccc[nH]2)c1 [Compound 1063, 3-(1H-pyrrol-2-yl)-5-{[(4-{[(2R,3R,4R,5S)-3,4,5-trihydroxy-2-(hydroxymethyl)piperidin-1-yl]methyl}phenyl)methyl]amino}-benzonitrile] | 1 | 70 | < 1 | < 1
CS(=O)(=O)c1cc(NCc2ccc(CN3C[C@H](O)[C@@H](O)[C@H](O)[C@H]3CO)cc2)cc(-c2ncccn2)c1 [Compound 1059, (2R,3R,4R,5S)-2-(hydroxymethyl)-1-{[4-({[3-methanesulfonyl-5-(pyrimidin-2-yl)phenyl]amino}methyl)phenyl]methyl}piperidine-3,4,5-triol] | 33 | 58 | 8 | 45
O=[N+]([O-])c1cc(-c2ncccn2)ccc1NCc1ccc(CN2C[C@H](O)[C@@H](O)[C@H](O)[C@H]2CO)cc1 [Compound 1102, (2R,3R,4R,5S)-2-(hydroxymethyl)-1-{[4-({[2-nitro-4-(pyrimidin-2-yl)phenyl]amino}methyl)phenyl]methyl}piperidine-3,4,5-triol] | < 1 | 64 | < 1 | < 1
[N-]=[N+]=Nc1ccc(NCc2ccc(Cc3ccc(CN4C[C@H](O)[C@@H](O)[C@H](O)[C@H]4CO)cc3)cc2)c([N+](=O)[O-])c1 [Compound 1105, (2R,3R,4R,5S)-1-({4-[(4-{[(4-azido-2-nitrophenyl)amino]methyl}phenyl)methyl]phenyl}methyl)-2-(hydroxymethyl)piperidine-3,4,5-triol] | 16 | 151 | 6 | 12
O=[N+]([O-])c1cc(-c2cccnn2)ccc1NCc1ccc(CN2C[C@H](O)[C@@H](O)[C@H](O)[C@H]2CO)cc1 [Compound 1101, (2R,3R,4R,5S)-2-(hydroxymethyl)-1-{[4-({[2-nitro-4-(pyridazin-3-yl)phenyl]amino}methyl)phenyl]methyl}piperidine-3,4,5-triol] | < 1 | 43 | < 1 | 4
O=[N+]([O-])c1cc(-c2ncc[nH]2)ccc1NCCc1ccc(CCN2C[C@H](O)[C@@H](O)[C@H](O)[C@H]2CO)cc1 [Compound 1078, (2R,3R,4R,5S)-2-(hydroxymethyl)-1-{2-[4-(2-{[4-(1H-imidazol-2-yl)-2-nitrophenyl]amino}ethyl)phenyl]ethyl}piperidine-3,4,5-triol] | 200 | 95 | 28 | 506
O=[N+]([O-])c1cc(-c2ccc[nH]2)ccc1NCc1cccc(CN2C[C@H](O)[C@@H](O)[C@H](O)[C@H]2CO)c1 [Compound 1088, (2R,3R,4R,5S)-2-(hydroxymethyl)-1-{[3-({[2-nitro-4-(1H-pyrrol-2-yl)phenyl]amino}methyl)phenyl]methyl}piperidine-3,4,5-triol] | < 1 | 6360 | < 1 | < 1
